Laboratory results reported in article PMC10604324, “Implications for Combination Therapy of Selective Monoamine Reuptake Inhibitors on Dopamine Transporters” (Biomedicines, 2023).
Where “and” joins values, the source holds several entries; their conditions need not be identical. Equal entries are not always repeated. Where two headings read alike, the source gives them in different places.

Columns and labels:
human DAT = human DAT (Homo sapiens, UniProt Q01959); assay: Fluorescence-based neurotransmitter uptake assay, HEK-hDAT cells; type: cell-based
human DAT, sequence (Q01959 whole entry): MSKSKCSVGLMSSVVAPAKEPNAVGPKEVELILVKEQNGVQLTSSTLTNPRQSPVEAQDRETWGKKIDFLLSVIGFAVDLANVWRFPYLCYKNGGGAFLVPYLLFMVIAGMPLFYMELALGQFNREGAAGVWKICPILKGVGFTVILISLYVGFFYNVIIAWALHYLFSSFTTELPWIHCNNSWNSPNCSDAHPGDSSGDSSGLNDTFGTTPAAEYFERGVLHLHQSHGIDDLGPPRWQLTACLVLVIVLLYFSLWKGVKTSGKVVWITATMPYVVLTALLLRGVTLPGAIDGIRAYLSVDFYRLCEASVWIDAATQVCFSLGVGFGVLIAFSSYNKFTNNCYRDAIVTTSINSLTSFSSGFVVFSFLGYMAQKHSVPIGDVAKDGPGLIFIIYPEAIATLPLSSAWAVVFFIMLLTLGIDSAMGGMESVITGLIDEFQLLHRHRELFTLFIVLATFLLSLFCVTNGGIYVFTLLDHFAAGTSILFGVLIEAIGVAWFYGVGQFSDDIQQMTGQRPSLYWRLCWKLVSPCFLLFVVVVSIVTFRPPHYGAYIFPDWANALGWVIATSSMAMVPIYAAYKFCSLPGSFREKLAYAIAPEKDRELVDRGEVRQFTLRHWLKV

DAT [1] = conditions: cited from earlier work
NET = conditions: cited from earlier work
SERT = conditions: cited from earlier work
DAT [2] = system: DAT; parameters: method as in PMID 10997723; conditions: effect of isethionate on mazindol binding; cited from earlier work
[3] = DAT inhibition by monovalent ions
[4] = read-out: Literature IC50, substrate uptake assay, ref A.J. Eshleman, et al., J Pharmacol Exp Ther 289 (1999) 877-885
[5] = read-out: Literature IC50, substrate uptake assay, ref M.J. Hansard, et al., J Pharmacol Exp Ther 303 (2002) 952-958

CNC[C@H](O)[C@H](O)[C@H](O)[C@H](O)CO [NMDG]
Hill coefficient (h) (human DAT; [3]): 11 and 10.6 ± 3.8 | IC50 (human DAT; [3]): 3.7 ± 0.2 mM

O=C(O)[C@H](O)[C@@H](O)[C@H](O)[C@H](O)CO [Gluconate]
Hill coefficient (h) (human DAT; [3]): 1.2 ± 0.3 | IC50 (human DAT; [3]): 1.4 ± 0.2 mM

CNCCC(Oc1ccccc1OC)c1ccccc1 (stereo not drawn) [Nisoxetine]
IC50 (DAT [1]; [4]): […] | IC50 (NET; [4]): 5.3 nM | IC50 (SERT; [4]): […]

O=S(=O)(O)CCO [Isethionate]
Hill coefficient (h) (human DAT; [3]): 0.8 ± 0.2 | IC50 (human DAT; [3]): 3.3 ± 0.6 mM | reduction of the binding of a DAT inhibitor, mazindol (DAT [2]): more than 50%

C[N+](C)(C)CCO [Choline]
Hill coefficient (h) (human DAT): 1.4 ± 0.2 | IC50 (human DAT; [3]): 37 mM and 36.6 mM
